“And” between values parts separate entries of the source, which are not always exact repeats. Identical values can stand only once. “Also recorded” adds a separate entry of the source.
How the values were obtained:
KAI2 [1] = system: KAI2; design: method as in PMID 25126711; settings: cited from earlier work
ShKAI2iB [2] = molecular target: T1, ShKAI2iB (Striga hermonthica, UniProt A0A0M3PN85, C270S); test: ITC binding to ShKAI2iB (wild type)
Method: (§1) The coding sequence cDNA of ShKAI2iB was amplified by PCR using total complementary DNA from the total RNA of 1-day conditioned Striga seeds. ShKAI2iB (1–270, C270S) was designed for crystallization and other assays. For expression in Escherichia coli, the PCR product was cloned into an expression vector pGEX-6P-3 (GE Healthcare) and subsequently transformed into E. coli strain Rosetta (DE3) (Novagen). IPTG-induced overexpression was performed for 20 h at 25 °C. For purification, cell pellets were lysed by sonication in buffer A (20 mM Tris-HCl, pH 8.0, 0.3 M NaCl, 1 mM DTT), and the soluble fraction separated by centrifugation was purified using Glutathione Sepharose 4B resin (GE Healthcare) and a Resource Q anion-exchange column (GE Healthcare). ShKAI2iB mutants were overexpressed and purified with the same procedure as wild-type protein. For crystallization, buffer exchange accompanied by concentration was performed using Vivaspin 20 (5,000 MWCO PES) (Sartorius). Purified ShKAI2iB was dialyzed against buffer B (20 mM HEPES-NaOH, pH 8.0, 50 mM NaCl) for the ITC experiments and the intrinsic fluorescence assay.
(§2) Binding assays of ShKAI2iB and KAR1 were performed using a MicroCal iTC200 isothermal titration calorimeter (GE Healthcare). Prior to the ITC experiments, concentrated ShKAI2iB was dialyzed against a buffer consisting of 20 mM HEPES-NaOH, pH 8.0, and 50 mM NaCl to remove dithiothreitol and then adjusted to a final concentration of 150 μM. The sample cell was filled with ShKAI2iB solution (204 μl). […] of 3 mM KAR1 or 3 mM rac-GR24 (equimolar mixture of two enantiomers: GR24^5DS and GR24^ent-5DS) was injected into the prepared protein solution by 20 consecutive 2.0 μl aliquots at 150 s intervals at 10 °C. The first injection volume was 0.4 μl, and the observed thermal peak was excluded from the data analyses. Duplicate experiments were performed independently. A negative control was made by titrating 3 mM KAR1 into a buffer (20 mM HEPES, pH 8.0, 50 mM NaCl) in the same manner. Data fitting was performed using Origin software in the “one set of sites” mode. The dissociation constant (KD) values were calculated from duplicate thermograms (mean ± S.D.).

ShKAI2iB [3] = molecular target: T1, ShKAI2iB; test: Enzymatic degradation (hydrolysis) assay of rac-GR24 with HPLC; type: biochemical; settings: 10 μM rac-GR24, 6 μg ml^−1 protein, 3 h, 37 °C
Method: The enzymatic degradation assay of rac-GR24 was performed in a total volume of 1 ml of PBS buffer containing 10 μM rac-GR24. Purified OsD14[23] and ShKAI2iB were added at a final concentration of 6 μg ml^−1 and incubated for 3 h at 37 °C. Then 100 mg of NaCl and 100 μl of 0.1 M HCl were added to each reaction solution, and the reaction solutions were extracted with 400 μl of ethyl acetate three times. The ethyl acetate layers were combined and dried in vacuo and dissolved in 50 μl of methanol. For each layer, 10 μl was applied to the HPLC analyses. The reverse-phase chromatographic separation was performed on a Jasco HPLC system that was equipped with an HPLC pump of model PU 2080 (Jasco) and a photodiode array detector MD1510 (Jasco). The system was controlled by the ChromNAV (Ver. 1.18.07) software program (Jasco). The analytical column was a CAPCELL CORE C18 (Φ 4.6 × 100 mm, Shiseido). The analytes were eluted under gradient conditions using methanol ramped linearly to 90% methanol at 9 min and held for 4.5 min before resetting to the original conditions. The contents of rac-GR24 was calculated by the peak area at the retention time 6.2 min with the regression equation obtained from the calibration curve produced using a dilution series of rac-GR24 solution. […] Statistical differences between the groups were calculated with ANOVA analysis followed by Tukey–Kramer test.

ShKAI2iB [4] = molecular target: T1, ShKAI2iB; test: Intrinsic fluorescence binding assay
Method: The coding sequence cDNA of ShKAI2iB was amplified by PCR using total complementary DNA from the total RNA of 1-day conditioned Striga seeds. ShKAI2iB (1–270, C270S) was designed for crystallization and other assays. For expression in Escherichia coli, the PCR product was cloned into an expression vector pGEX-6P-3 (GE Healthcare) and subsequently transformed into E. coli strain Rosetta (DE3) (Novagen). IPTG-induced overexpression was performed for 20 h at 25 °C. […] Purified ShKAI2iB was dialyzed against buffer B (20 mM HEPES-NaOH, pH 8.0, 50 mM NaCl) for the ITC experiments and the intrinsic fluorescence assay.
KD values were also determined by using intrinsic fluorescence assays. Fluorescence measurements were conducted as previously described[16] with minor modifications. […] Flat-bottomed, black 96 well plates were used to read fluorescence intensity using a Tecan Infinite M1000 monochromator. Measurements were taken at room temperature under a 285 nm excitation wavelength, a 333 nm emission wavelength, 50 flashes, and a 400 Hz flash frequency with a gain of 70 and a 2 μs integration time. ΔF (rfu, relative fluorescence units) was calculated by subtracting the fluorescence of the DMSO control. […]

KAI2 [5] = system: KAI2; design: method as in PMID 25126711; settings: cited from earlier work; remark: listed apart in the source
ShKAI2iB V139L = ShKAI2iB V139L (Striga hermonthica, UniProt A0A0M3PN85, C270S/V139L); test: ITC binding to ShKAI2iB V139L mutant
Sequence of ShKAI2iB V139L (A0A0M3PN85 1-270 V139L/C270S): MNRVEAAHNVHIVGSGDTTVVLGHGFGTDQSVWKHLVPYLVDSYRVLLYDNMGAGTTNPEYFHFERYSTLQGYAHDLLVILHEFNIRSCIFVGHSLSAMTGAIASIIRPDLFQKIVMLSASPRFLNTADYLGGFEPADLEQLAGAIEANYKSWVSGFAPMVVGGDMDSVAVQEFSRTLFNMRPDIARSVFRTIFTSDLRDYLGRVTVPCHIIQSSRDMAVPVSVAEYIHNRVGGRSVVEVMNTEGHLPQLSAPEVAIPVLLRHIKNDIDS
Method: as §1
(§3) Binding assays of ShKAI2iB and KAR1 were performed using a MicroCal iTC200 isothermal titration calorimeter (GE Healthcare). Prior to the ITC experiments, concentrated ShKAI2iB was dialyzed against a buffer consisting of 20 mM HEPES-NaOH, pH 8.0, and 50 mM NaCl to remove dithiothreitol and then adjusted to a final concentration of 150 μM. The sample cell was filled with ShKAI2iB solution (204 μl). Two microliters of 3 mM KAR1 or 3 mM rac-GR24 (equimolar mixture of two enantiomers: GR24^5DS and GR24^ent-5DS) was injected into the prepared protein solution by 20 consecutive 2.0 μl aliquots at 150 s intervals at 10 °C. The first injection volume was 0.4 μl, and the observed thermal peak was excluded from the data analyses. Duplicate experiments were performed independently. […] The dissociation constant (KD) values were calculated from duplicate thermograms (mean ± S.D.). […]

ShKAI2iB F194A = ShKAI2iB F194A (Striga hermonthica, UniProt A0A0M3PN85, C270S/F194A); test: ITC binding to ShKAI2iB F194A mutant
Sequence of ShKAI2iB F194A (A0A0M3PN85 1-270 F194A/C270S): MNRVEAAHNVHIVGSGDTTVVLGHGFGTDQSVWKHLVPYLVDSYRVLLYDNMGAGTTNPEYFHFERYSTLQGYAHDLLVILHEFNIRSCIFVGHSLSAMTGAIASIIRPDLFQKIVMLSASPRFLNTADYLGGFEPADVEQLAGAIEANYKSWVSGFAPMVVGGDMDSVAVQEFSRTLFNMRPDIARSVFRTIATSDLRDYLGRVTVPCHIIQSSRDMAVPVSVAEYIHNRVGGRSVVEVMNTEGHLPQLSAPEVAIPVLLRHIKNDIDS
Method: as §1, §2
(§4) Supplementary Figure 4. Results of ITC experiments between ShKAI2iB mutants and KAR1. ITC experiments were performed b y titrating KAR1 into ShKA I2iB mutants (a, F194A; b, S95A; c, L142A; d, F190L; e, V139 L) or into buffer as a negat ive control (f). The upper panel illustrates raw ITC data. The bottom panel represents data of the enthalpy cha nge deri ved fr om the upper panel. Corres ponding […]
(§5) (1 picture or pasted object on this page, not shown here)

ShKAI2iB S95A = test: ITC binding to ShKAI2iB S95A mutant; design: species or system Striga hermonthica
Method: as §1
Binding assays of ShKAI2iB and KAR1 were performed using a MicroCal iTC200 isothermal titration calorimeter (GE Healthcare). […] The dissociation constant (KD) values were calculated from duplicate thermograms (mean ± S.D.). […]

S. hermonthica = system: S. hermonthica; design: method as in PMID 26228149; settings: cited from earlier work
ShKAI2iB F190L = ShKAI2iB F190L (Striga hermonthica, UniProt A0A0M3PN85, C270S/F190L); test: ITC binding to ShKAI2iB F190L mutant
Sequence of ShKAI2iB F190L (A0A0M3PN85 1-270 F190L/C270S): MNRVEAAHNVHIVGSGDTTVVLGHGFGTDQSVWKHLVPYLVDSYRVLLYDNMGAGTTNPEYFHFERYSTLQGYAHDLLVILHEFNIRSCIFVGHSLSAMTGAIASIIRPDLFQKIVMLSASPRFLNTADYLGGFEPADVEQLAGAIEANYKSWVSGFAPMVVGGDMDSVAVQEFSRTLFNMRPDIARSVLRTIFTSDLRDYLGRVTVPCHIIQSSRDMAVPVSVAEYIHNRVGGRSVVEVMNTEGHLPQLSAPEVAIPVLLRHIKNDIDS
Method: as §1, §3

ShKAI2iB L142A = ShKAI2iB L142A (Striga hermonthica, UniProt A0A0M3PN85, C270S/L142A); test: ITC binding to ShKAI2iB L142A mutant
Sequence of ShKAI2iB L142A (A0A0M3PN85 1-270 L142A/C270S): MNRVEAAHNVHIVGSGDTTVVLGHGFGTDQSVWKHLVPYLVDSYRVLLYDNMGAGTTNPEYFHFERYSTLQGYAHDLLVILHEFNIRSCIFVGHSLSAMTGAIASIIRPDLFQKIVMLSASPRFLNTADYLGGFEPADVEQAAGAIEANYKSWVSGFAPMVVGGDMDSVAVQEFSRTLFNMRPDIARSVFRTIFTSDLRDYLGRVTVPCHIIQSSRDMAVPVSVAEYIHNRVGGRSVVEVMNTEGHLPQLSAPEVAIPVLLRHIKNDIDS
Method: as §1, §2, §4, §5

T1 sequence (A0A0M3PN85 1-270 C270S): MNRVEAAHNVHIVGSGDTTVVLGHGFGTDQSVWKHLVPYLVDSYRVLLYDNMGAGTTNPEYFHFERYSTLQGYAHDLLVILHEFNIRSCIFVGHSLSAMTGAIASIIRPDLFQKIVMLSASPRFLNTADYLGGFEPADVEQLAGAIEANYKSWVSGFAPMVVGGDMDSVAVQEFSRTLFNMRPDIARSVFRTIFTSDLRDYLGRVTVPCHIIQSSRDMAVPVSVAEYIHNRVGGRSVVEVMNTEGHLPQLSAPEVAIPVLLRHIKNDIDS

CC1=CC(OC=C2C(=O)OC3c4ccccc4CC23)OC1=O (racemic) [rac-GR24]
hydrolysis by KAI2 (KAI2 [1]): exhibits hydrolytic activity
heat change in ITC (binding) (ShKAI2iB [2]; wild-type ShKAI2iB, 3 mM ligand titrated): no detectable heat change
hydrolysis by ShKAI2iB (ShKAI2iB [3]): not capable of hydrolyzing
hydrolysis by ShKAI2iB (ShKAI2iB [3]; listed as GR24): unable to bind and hydrolyze
fluorescence change (binding) (ShKAI2iB [4]; wild-type ShKAI2iB): no detectable heat change or fluorescence change
binding to KAI2 (KAI2 [5]): able to bind

Cc1c2ccocc-2oc1=O [KAR1, 3-methyl-2H-furo [2,3-c] pyran-2-one]
ΔH (ShKAI2iB V139L): –12.87 ± 0.03 kcal mol^–1
ΔS (ShKAI2iB V139L): –24.8 cal mol^–1 deg^–1
Kd (ShKAI2iB V139L; KD, ITC): 35.6 µM and 36 µM
Kd (ShKAI2iB [2]): 77.6 ± 3.4 µM
N (number of sites) (ShKAI2iB [2]; wild-type ShKAI2iB, ITC): 0.91 ± 0.05
ΔG (ShKAI2iB [2]; wild-type ShKAI2iB, ITC): –5.35 kcal/mol
ΔS (entropy change) (ShKAI2iB [2]; wild-type ShKAI2iB, ITC, 10 °C): –3.99 cal mol^–1 deg^–1
Kd (ShKAI2iB F194A): 107 ± 10 µM
change of ITC result versus wild type (ShKAI2iB F194A; F194A mutant): no significant change
ΔG (ShKAI2iB F194A; F194A mutant): –5.11 kcal/mol
ΔH (ShKAI2iB F194A; F194A mutant): –13.24 ± 63.94 kcal mol^–1
ΔS (ShKAI2iB F194A; F194A mutant): –28.7 cal mol^–1 deg^–1
heat change in ITC (binding) (ShKAI2iB S95A): almost no heat change; also recorded: abolishes binding
induction of germination of S. hermonthica (S. hermonthica): failed to induce germination
Kd (ShKAI2iB [4]): 70 ± 3.4 µM
binding to KAI2 (KAI2 [5]): able to bind
ΔG (ShKAI2iB F190L): –4.75 kcal/mol
ΔH (ShKAI2iB F190L): –11.71 ± 8.89 kcal mol^–1
ΔS (ShKAI2iB F190L): –24.6 cal mol^–1 deg^–1
Kd (ShKAI2iB L142A): 196 ± 24 µM
ΔG (ShKAI2iB L142A; L142A mutant): –4.76 kcal/mol
ΔH (ShKAI2iB L142A; L142A mutant): –7.00 ± 0.70 kcal mol^–1
ΔS (ShKAI2iB L142A; L142A mutant): –7.90 cal mol^–1 deg^–1

From publication PMC4979206, “Structural basis of unique ligand specificity of KAI2-like protein from parasitic weed Striga hermonthica” (Scientific Reports, 2016)
